Experimental data published in patent publication US20200368312A1 (priority 2017, published 2020).
Converted amounts (≈) assume the structure as drawn. Read-outs that look alike come from different tables or passages of the source.

Legend:
Streptococci = test: Broth microdilution MIC, Streptococci (Example 11, Table 7); assay type: cell-based
P. micros = test: Broth microdilution MIC, P. micros (Table 7); assay type: cell-based; conditions: P. micros MMX 3546
S. epidermidis (CoNS) = test: Broth microdilution MIC, S. epidermidis (CoNS) (Table 7); assay type: cell-based
Clostridium difficile = test: Broth microdilution MIC, C. difficile, anaerobic, supplemented Brucella Broth (Example 11, Table 7); assay type: cell-based
E. lenta = test: Broth microdilution MIC, E. lenta (Table 7); assay type: cell-based; conditions: E. lenta MMX 1287 ATCC 43055
[1] = Un-inoculated solubility control plates, drug precipitation in test media; assay type: physicochemical; conditions: top concentration tested (64 μg/mL) in MHBII with blood and supplemented Brucella broth
Staphylococcus aureus = test: microbe, parasite or virus in culture; assay type: cell-based
S. haemolyticus (CoNS) = test: Broth microdilution MIC, S. haemolyticus (CoNS) (Table 7); assay type: cell-based; conditions: S. haemolyticus (CoNS) MMX 529 ATCC 29970
P. acnes = test: Broth microdilution MIC, P. acnes (Table 7); assay type: cell-based
Enterococci = assay type: cell-based
S. hominis (CoNS) = test: Broth microdilution MIC, S. hominis (CoNS) (Table 7); assay type: cell-based; conditions: S. hominis (CoNS) MMX 667 ATCC 27844
C. perfringens = assay type: cell-based; conditions: C. perfringens MMX 8351 ATCC 13124
P. anaerobius = test: Broth microdilution MIC, P. anaerobius (Table 7); assay type: cell-based; conditions: P. anaerobius MMX 1208 ATCC 27337
S. lugdenensis (CoNS) = test: Broth microdilution MIC, S. lugdenensis (CoNS) (Table 7); assay type: cell-based; conditions: S. lugdenensis (CoNS) MMX 8724

## CCCCCCCCCCNC1(C)CC(OC2C(Oc3c4cc5cc3Oc3ccc(cc3Cl)C(O)C3NC(=O)C(NC(=O)C5NC(=O)C(CC(N)=O)NC(=O)C(NC(=O)C(CC(C)C)NC)C(O)c5ccc(c(Cl)c5)O4)c4ccc(O)c(c4)-c4c(O)cc(O)cc4C(C(=O)O)NC3=O)OC(CO)C(O)C2O)OC(C)C1O (stereo not shown) [Compound 5, N-decyl vancomycin]
Streptococci; S. agalactiae MMX 427 ATCC 13813
  MIC: 0.03 µg/mL (≈ 0.0189 µM)
Streptococci; S. agalactiae MMX 4088
  MIC: 0.015 µg/mL (≈ 0.00944 µM)
Streptococci; S. agalactiae MMX 4115, erm^R
  MIC: 0.015 µg/mL (≈ 0.00944 µM)
Streptococci; S. anginosus (AGS) MMX 1201 ATCC 33397
  MIC: 0.03 µg/mL (≈ 0.0189 µM)
Streptococci; S. constellatus (AGS) MMX 5677
  MIC: 0.03 µg/mL (≈ 0.0189 µM)
Streptococci; S. dysgalactiae MMX 5121
  MIC: 0.015 µg/mL (≈ 0.00944 µM)
Streptococci; S. dysgalactiae MMX 5123
  MIC: 0.03 µg/mL (≈ 0.0189 µM)
Streptococci; S. dysgalactiae MMX 5124
  MIC: 0.015 µg/mL (≈ 0.00944 µM)
Streptococci; S. mitis (MGS) MMX 1205 ATCC 49456
  MIC: 0.03 µg/mL (≈ 0.0189 µM)
Streptococci; S. mitis (MGS) MMX 5798
  MIC: 0.015 µg/mL (≈ 0.00944 µM)
Streptococci; S. oralis (MGS) MMX 5821
  MIC: 0.03 µg/mL (≈ 0.0189 µM)
Streptococci; S. pneumoniae MMX 1195 ATCC 49619, PISP
  MIC: 0.015 µg/mL (≈ 0.00944 µM)
Streptococci; S. pyogenes MMX 946, ermR
  MIC: 0.015 µg/mL (≈ 0.00944 µM)
P. micros
  MIC: 0.12 µg/mL (≈ 0.0755 µM)
S. epidermidis (CoNS); S. epidermidis (CoNS) MMX 762, MRSE
  MIC: 0.12 µg/mL (≈ 0.0755 µM)
S. epidermidis (CoNS); S. epidermidis (CoNS) MMX 5145, MRSE
  MIC: 0.06 µg/mL (≈ 0.0377 µM)
Clostridium difficile; C. difficile MMX 4381 ATCC 700057, toxinAB-negative
  MIC: 0.06 µg/mL (≈ 0.0377 µM)
Clostridium difficile; C. difficile MMX 4994 ATCC BAA-1805, ribotype 027
  MIC: 0.06 µg/mL (≈ 0.0377 µM)
Clostridium difficile; C. difficile MMX 5668 ATCC BAA-1870, NAP1/027
  MIC: 0.5 µg/mL (≈ 0.315 µM)
E. lenta
  MIC: 0.12 µg/mL (≈ 0.0755 µM)
[1]
  drug precipitation: Some precipitation
Staphylococcus aureus; MRSA strains (Table 5), […]
  RV40 activity as compared to Comparator: 9 ×
Staphylococcus aureus; S. aureus MMX 100 ATCC 29213, MSSA (quality control)
  MIC: 0.06 µg/mL (≈ 0.0377 µM)
Staphylococcus aureus; S. aureus MMX 1723, Mu50, VISA
  MIC: 0.5 µg/mL (≈ 0.315 µM)
Staphylococcus aureus; S. aureus MMX 2010, MRSA
  MIC: 0.06 µg/mL (≈ 0.0377 µM)
Staphylococcus aureus; S. aureus MMX 2011 ATCC BAA-1756, MRSA
  MIC: 0.12 µg/mL (≈ 0.0755 µM)
Staphylococcus aureus; S. aureus MMX 2124, VISA, DaptoNS
  MIC: 0.25 µg/mL (≈ 0.157 µM)
Staphylococcus aureus; S. aureus MMX 2490, MSSA
  MIC: 0.06 µg/mL (≈ 0.0377 µM)
Staphylococcus aureus; S. aureus MMX 3982, MRSA
  MIC: 0.06 µg/mL (≈ 0.0377 µM)
Staphylococcus aureus; S. aureus MMX 4658, VISA
  MIC: 0.5 µg/mL (≈ 0.315 µM)
Staphylococcus aureus; S. aureus MMX 4660, VISA
  MIC: 0.12 µg/mL (≈ 0.0755 µM)
Staphylococcus aureus; S. aureus MMX 4665, hVISA
  MIC: 0.5 µg/mL (≈ 0.315 µM)
Staphylococcus aureus; S. aureus MMX 4675 ATCC BAA-1556, MRSA
  MIC: 0.06 µg/mL (≈ 0.0377 µM)
Staphylococcus aureus; S. aureus MMX 5717 ATCC 33591, MRSA
  MIC: 0.06 µg/mL (≈ 0.0377 µM)
Staphylococcus aureus; S. aureus MMX 5985, MRSA
  MIC: 0.06 µg/mL (≈ 0.0377 µM)
Staphylococcus aureus; S. aureus MMX 5989, Mu3, hVISA
  MIC: 0.06 µg/mL (≈ 0.0377 µM)
Staphylococcus aureus; S. aureus MMX 5999, MRSA
  MIC: 0.06 µg/mL (≈ 0.0377 µM)
Staphylococcus aureus; S. aureus MMX 7899, MRSA
  MIC: 0.06 µg/mL (≈ 0.0377 µM)
Staphylococcus aureus; S. aureus MMX 7900, MRSA
  MIC: 0.12 µg/mL (≈ 0.0755 µM)
Staphylococcus aureus; S. aureus MMX 7901, MRSA
  MIC: 0.06 µg/mL (≈ 0.0377 µM)
Staphylococcus aureus; S. aureus MMX 7902, MRSA
  MIC: 0.25 µg/mL (≈ 0.157 µM)
Staphylococcus aureus; S. aureus MMX 7903, MRSA
  MIC: 0.06 µg/mL (≈ 0.0377 µM)
Staphylococcus aureus; S. aureus MMX 7907, MSSA
  MIC: 0.06 µg/mL (≈ 0.0377 µM)
Staphylococcus aureus; S. aureus MMX 7908, MSSA
  MIC: 0.12 µg/mL (≈ 0.0755 µM)
S. haemolyticus (CoNS)
  MIC: 0.06 µg/mL (≈ 0.0377 µM)
P. acnes; P. acnes MMX 7942 ATCC 6919
  MIC: 0.06 µg/mL (≈ 0.0377 µM)
P. acnes; P. acnes MMX 7946 ATCC 11827
  MIC: 0.06 µg/mL (≈ 0.0377 µM)
Enterococci
  MIC: 0.06 µg/mL (≈ 0.0377 µM)
Enterococci; E. faecalis MMX 1086, VanA VRE
  MIC: 0.06 µg/mL (≈ 0.0377 µM)
Enterococci; E. faecium MMX 173, VanB VRE
  MIC: 0.12 µg/mL (≈ 0.0755 µM)
Enterococci; E. faecium MMX 851, VanA VRE
  MIC: 2 µg/mL (≈ 1.26 µM)
S. hominis (CoNS)
  MIC: 0.06 µg/mL (≈ 0.0377 µM)
C. perfringens
  MIC: 0.06 µg/mL (≈ 0.0377 µM)
P. anaerobius
  MIC: 0.03 µg/mL (≈ 0.0189 µM)
S. lugdenensis (CoNS)
  MIC: 0.03 µg/mL (≈ 0.0189 µM)
